In patent publication US8257755B2, “Metabolic syndrome-improving agent and medicine, supplement, functional food and food additive containing the same” (ARKRAY, Inc., priority 2005, dated 2012):

Tests used:
Format in all cases: cell-based
PPARα = molecular target: T1, PPARα (Homo sapiens, UniProt Q07869); assay: PPARα ligand activity, GAL4-hPPARα luciferase reporter assay in CV-1 cells; settings: relative to non-treatment control (DMSO) = 100, average ± standard error
T1 construct: expressed in transfected cells; host or cells: CV-1 cells (African green monkey kidney)
T1 sequence (Q07869 1-468): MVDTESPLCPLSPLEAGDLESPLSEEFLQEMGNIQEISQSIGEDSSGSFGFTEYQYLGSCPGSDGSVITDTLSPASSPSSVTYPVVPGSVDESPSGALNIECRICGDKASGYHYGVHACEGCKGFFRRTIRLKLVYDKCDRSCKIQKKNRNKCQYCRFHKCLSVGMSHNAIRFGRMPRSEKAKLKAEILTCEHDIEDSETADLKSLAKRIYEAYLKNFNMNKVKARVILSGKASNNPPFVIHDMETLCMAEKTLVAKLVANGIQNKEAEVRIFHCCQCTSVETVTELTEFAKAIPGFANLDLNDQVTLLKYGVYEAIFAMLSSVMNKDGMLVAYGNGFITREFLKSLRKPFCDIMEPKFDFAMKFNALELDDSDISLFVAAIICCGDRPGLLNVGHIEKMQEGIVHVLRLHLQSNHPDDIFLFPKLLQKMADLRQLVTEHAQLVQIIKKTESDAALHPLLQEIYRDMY
Protocol: (§1) CV-1 cells (cultured cells derived from kidneys of male African green monkeys) were implanted on 24-well culture plates so as to be […]/well and cultured at 37° C. in 5% CO2 for 24 hours. As a medium, DMEM (Dulbecco's Modified Eagle Medium; manufactured by GIBCO) containing 10% FBS (fetal bovine serum) and a 10 mg/mL penicillin streptomycin solution was used. Using the Lipofectamine system (trade name; manufactured by Invitrogen Corporation), pM-hPPARγ and p4×UASg-tk-luc were transfected. The above-noted pM-hPPARγ was a chimeric protein-expression plasmid binding GAL4 gene (amino acid sequence 1-147) and human PPARγ ligand-binding site gene (amino acid sequence 204-505), whereas the above-noted p4×UASg-tk-luc was a reporter plasmid containing four copies of a responsive element (UAS) of GAL 4 upstream of a luciferase gene. About 24 hours after the transfection, samples of bergamottin at respective concentrations (0.1, 1.0, 10, 50 and 100 μM) were added to the above-described media, followed by 24 hour incubation. The above-noted samples were prepared by dissolving bergamottin in dimethyl sulfoxide (DMSO). Instead of the above-noted sample, DMSO was used for non-treated control media. After the incubation, measurement was made using a Dual-Luciferase Reporter Gene Assay system (trade name; manufactured by Promega Corporation).
(§2) Similarly to the measurement group, as a control group, pM (a plasmid from which PPARγ ligand-binding site gene was removed) was used for measurement instead of pM-hPPARγ. For each sample, the ratio between average luminescence intensities of the measurement group and the control group (n=4) (measurement group/control group) was calculated, and an activity relative to the non-treatment control was determined as the PPARγ ligand activity of the sample.
The PPARα ligand activity of bergamottin was measured similarly to Example 1 except that pM-hPPARα was used instead of pM-hPPARγ and the bergamottin concentrations were set to 0.1, 1.0, 5.0, 10, 20, 50 and 80 μM.

[1] = molecular target: T2, human PPARγ ligand-binding site (Homo sapiens, UniProt P37231); assay: PPARγ ligand activity, GAL4-hPPARγ luciferase reporter assay in CV-1 cells; settings: for PPARγ ligand activity: relative to non-treatment control (DMSO) = 100, average ± standard error, n=4
T2 construct: expressed in transfected cells; host or cells: CV-1 cells (African green monkey kidney)
T2 sequence (P37231 204-505): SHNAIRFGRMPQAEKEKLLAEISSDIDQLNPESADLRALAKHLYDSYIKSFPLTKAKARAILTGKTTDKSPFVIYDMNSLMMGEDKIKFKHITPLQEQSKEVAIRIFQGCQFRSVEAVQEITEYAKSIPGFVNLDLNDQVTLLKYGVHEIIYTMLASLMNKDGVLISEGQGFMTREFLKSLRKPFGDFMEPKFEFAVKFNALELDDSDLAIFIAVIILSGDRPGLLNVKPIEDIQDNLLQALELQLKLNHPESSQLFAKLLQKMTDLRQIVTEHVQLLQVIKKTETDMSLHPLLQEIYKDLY
Protocol: as §1, §2

[2] = tested on: HepG2 cells (human hepatic cells); assay: Counting of the number of living cells (CellTiter 96 Aqueous One) in HepG2; settings: 30 hours, measurement group/control group, DMSO control = 100
Protocol: HepG2 was cultured to 80% to 90% confluence in a 100 mm/Collagen-Coated Dish (trade name, manufactured by Iwaki Glass Works, Co.). The medium was removed from the above-noted dish with a pipette and then HepG2 was washed with 2 mL of 1×PBS. Then, 2 mL of trypsin-EDTA was added, the above-noted dish was rotated slowly so that the trypsin-EDTA spread over the entire cells, this trypsin-EDTA was removed with a pipette, and the dish was allowed to stand still for 15 minutes in a CO2 incubator (37° C., 5%). To this dish, 12 mL of a growth medium was added, followed by mixing by pipetting, and 1 mL of this mixture solution was dispensed in each well of Collagen-Coated Microplates 12Well/Flat Bottom (trade name, manufactured by Iwaki Glass Works, Co.). After the cells were checked using a microscope, the wells were cultured in a CO2 incubator (37° C., 5%) for one to two days. After checking that 80% to 90% confluence was achieved using the microscope, a medium replacement was carried out by removing the medium and adding 800 μL of a medium containing bergamottin. […] Using this collected medium, the number of living cells were counted, and the Western blotting and the ELISA measurement were carried out similarly to the above. From the result of the ELISA, the ratio of the VLDL secretion amount between the measurement group and the non-treated control group (measurement group/control group) was calculated for each sample.
The measurement was made using CellTiter 96 Aqueous One Solution Cell Proliferation Assay (trade name, manufactured by Promega Corporation). […] 100 μL of this mixture solution was dispensed to each of three wells of ELISA PLATE 96well (trade name, manufactured by Iwaki Glass Works, Co.), and the absorbance at 490 nm was measured. The measurement was made using wallac ARVOsx (trade name, PerkinElmer Life Sciences, PerkinElmer, Inc.), and the mode of measurement was Absorbance (490 nm, 1.0 S). The ratio of the number of living cells between the measurement group and the non-treated control group (measurement group/control group) was calculated for each sample.

For `CC(C)=CCC/C(C)=C/COc1c2ccoc2cc2oc(=O)ccc12` [Bergamottin, bergamottin], the PPARα ligand activity (PPARα; 0.1 μM) was 95 ± 12.9, the PPARα ligand activity (PPARα; 1.0 μM) was 92 ± 8.0 and the PPARα ligand activity (PPARα; 5.0 μM) was 118 ± 6.1. For the same molecule, the PPARα ligand activity (PPARα; 10 μM) was 194 ± 15.0, the PPARα ligand activity (PPARα; 20 μM) was 350 ± 25.5 and the PPARα ligand activity (PPARα; 50 μM) was 622 ± 79.6. It also gave a PPARα ligand activity (PPARα; 80 μM) of 558 ± 39.4, a PPARγ ligand activity ([1]; 0.1 μM) of 90 ± 5.7 and a PPARγ ligand activity ([1]; 1.0 μM) of 132 ± 12.0. For the same molecule, the PPARγ ligand activity ([1]; 10 μM) was 388 ± 41.4, the PPARγ ligand activity ([1]; 50 μM) was 961 ± 72.1 and the PPARγ ligand activity ([1]; 100 μM) was 1032 ± 248.3. For the same molecule, the “PPARγ activity level compared with catechin” value ([1]; no catechin data shown) was “higher than that of catechin”, the “Number of living cells (%)” value ([2]; 10 μM) was 99.6% and the “Number of living cells (%)” value ([2]; 20 μM) was 97.2%. The “Number of living cells (%)” value ([2]; 50 μM) was 99.8%.
